Assay results from article PMC5384453, “A multi-functional PEGylated gold(III) compound: potent anti-cancer properties and self-assembly into nanostructures for drug co-delivery” (Chemical Science, 2016).
Where two headings read alike, the source gives them in different places.

Legend:
HCT116 = assay: In vitro cytotoxicity, MTT assay; assay type: cell-based, human; settings: HCT116, MTT assay, 72 h incubation
Protocol: (§2) In vitro cytotoxicity assays. HeLa, NCI-H460, HCT116, A2780, A2780cis and
(§3) cells), respectively, were seeded in 96-well plates for 24 h. The cells were then treated with a serial concentration of gold(III) complexes and incubated at 37 °C under a 5% CO2 atmosphere for 72 h. For nanostructures of 1, 2 and NC1, they were dissolved in
(§4) cisplatin were dissolved in culture medium-DMSO solution mixture (99:1, v/v).

NCI-H460 = assay: In vitro cytotoxicity, MTT assay; assay type: cell-based, human; settings: NCI-H460, MTT assay, 72 h incubation
Protocol: as §2, §3, §4

A2780 = assay: In vitro cytotoxicity, MTT assay; assay type: cell-based, human; settings: A2780, MTT assay, 72 h incubation
Protocol: as §2, §3, §4

A2780adr = assay: In vitro cytotoxicity, MTT assay; assay type: cell-based, human; settings: for IC50: A2780adr; for Resistance found in A2780adr: IC50 of A2780adr cells / IC50 of A2780 cells
Protocol: as §2, §3, §4

NCM460 = assay: In vitro cytotoxicity, MTT assay; assay type: cell-based, human; settings: 72 h incubation
Protocol: as §2, §3, §4

A2780cis = assay: In vitro cytotoxicity, MTT assay; assay type: cell-based, human; settings: for IC50: A2780cis, MTT assay, 72 h incubation; for Resistance found in A2780cis: IC50 of A2780cis cells / IC50 of A2780 cells
Protocol: as §2, §3, §4

CHEM-5 = assay: In vitro cytotoxicity, MTT assay; assay type: cell-based, human; settings: CHEM-5, MTT assay, 72 h
Protocol: (§1) page 7: The gold content of the nanocomposites was determined by dissolving the nanocomposites in conc. HNO3 / conc. HCl solution mixture (9:1, v/v; 30 µL), followed by ICP-MS analysis. […] The nanocomposite (10 µL) was dissolved in acetonitrile (90 µL), and subjected to gentle shaking overnight. The solution mixture was then dried under vacuum, and re- dispersed in 0.1 vol% formic acid in water/acetonitrile (7/3, v/v; 1 mL) solution mixture. […] The mobile phase was 0.1 vol% formic acid in water/acetonitrile (7:3, v/v) solution mixture. […] The cells were then treated with a serial concentration of gold(III) complexes and incubated at 37 °C under a 5% CO2 atmosphere for 72 h. […] After incubation for 72 h, MTT in PBS solution (5 mg/mL, 10 μL) was added to each well. The plates were incubated at 37 °C under a 5% CO2 atmosphere for another 4 h, and the cells were lysed by the addition of SDS solution (10%, w/w) with 0.01 M HCl (100 μL). After incubation in dark at 37 °C overnight, the cell viability after treatment was determined by a microtitre plate reader monitoring at the absorbance at 590 nm, P.7 page 8: which reflected the amount of blue formazan formed. IC50 values were then determined by CompuSyn S6 from three independent measurements. Study on the release of hydrolyzed product from 1 and 2 in aqueous buffer solutions by ICP-MS. […] At a predetermined time, an aliquot of solution was removed and dissolved in HNO3/HCl solution mixture (9:1, v/v; volume of aliquot: volume of acid mixture = 1:3). The solution mixture was heated at 65 °C with shaking overnight, and the gold content was determined by ICP-MS from three independent aliquots. […] 37 °C for 24 h. […] Analysis of cell lysate of HCT116 cells treated with complexes 1 and 3 by UPLC- QTOF-MS. […] All the cells were harvested, washed with PBS solution for three times and dispersed in ice-cold water. The cell suspension was then added to ice-cold acetonitrile (1:3, v/v), vortexed for 5 min, and centrifuged at 10,000 rpm at 4 °C. The supernatant was collected, dried under vacuum and the solid was re-dissolved in acetonitrile (HPLC grade) for UPLC- QTOF-MS experiments. The mobile phase was a mixture of 0.1% formic acid in water (phase A) and 0.1% formic acid in acetonitrile (phase B). […] P.46

L02 = assay: In vitro cytotoxicity, MTT assay; assay type: cell-based, human; settings: 72 h
Protocol: as §1

MIHA = assay: In vitro cytotoxicity, MTT assay; assay type: cell-based
Protocol: as §2, §3, §4

HeLa = assay: In vitro cytotoxicity, MTT assay; assay type: cell-based, human; settings: HeLa
Protocol: as §2, §3, §4

CCD-19Lu = assay: In vitro cytotoxicity, MTT assay; assay type: cell-based, human; settings: 72 h incubation
Protocol: as §2, §3, §4

HCT116 cells = assay: Time-dependent induction of apoptosis, Caspase-3/7 Green ReadyProbes fluorescence microscopy; assay type: cell-based, human; settings: HCT116, NC1 ([1] = 3.5 μM and [DOX] = 0.5 μM) or DOX alone (0.5 μM), Caspase-3/7 Green Reagent
Protocol: B from 20.1 to 25 min and returned to initial conditions and equilibrated for 3 minutes.
The flow rate was 0.4 mL/min and the injection volume was 2 µL. The UPLC-QTOF-MS chromatograms of 1, 3, 4 and solvent control in acetonitrile were also recorded for the interpretation of UPLC-QTOF-MS chromatograms of the cell lysate.
Cellular uptake experiments. HCT116, A2780 and A2780adr (2×10 5 cells), and MIHA and NCM460 (3.5×10 5 cells) cells were grown on 6-well plates at 37 °C under an atmosphere of 5% CO2 for 48 h. The culture medium was then removed, washed with PBS solution, and incubated with culture medium containing nanostructures of 1 […]
Au1a (2 µM; with 1 vol% DMSO). At a predetermined time, the culture medium was removed and washed with PBS solution for three times. The cells were then harvested and dispersed in ice-cold water. An aliquot of the cell suspension was subjected to Bio-rad protein assay with a microtitre plate reader at the absorbance at 595 nm, using bovine serum albumin as the protein standard. […] The solution mixture was heated at 65 °C with shaking overnight, and the gold content was determined by ICP-MS. […]
then removed and washed with PBS solution. The cells were then incubated with culture medium containing nanostructures of 1 (2 µM) and CellEvent Caspase-3/7 Green ReadyProbes Reagent (30 µL), or Au1a (2 µM; with 1 vol% DMSO) and CellEvent Caspase-3/7 Green ReadyProbes Reagent (30 µL) at 37 °C under an atmosphere of 5% CO2. Fluorescence images at different time intervals were recorded by the fluorescence microscope without washing the cells. […]
once every 2–3 days. The tumor volume was calculated by the equation: Volume (mm3) = l×w2/2, where l and w were the length and width of the tumor. At the end of the treatment, the nude mice were sacrificed and the tumor weight was measured. […]
At a predetermined time, the culture medium was removed and washed with PBS solution for three times. […] An aliquot of the cell suspension was subjected to Bio-rad protein assay with a microtitre plate reader at the absorbance at 595 nm, using bovine serum albumin as the protein standard. […]

[1] = MTT assay, 72 h incubation, read-out: IC50
[2] = 72 h, read-out: Total dose at IC50

SMILES	IC50 (HCT116) [µM]	IC50 (NCI-H460) [µM]	IC50 (A2780) [µM]	IC50 (A2780adr; [1]) [µM]	Resistance found in A2780adr (A2780adr)	IC50 (NCM460) [µM]	IC50 (A2780cis) [µM]	Resistance found in A2780cis (A2780cis)	IC50 (CHEM-5) [µM]	IC50 (L02) [µM]	IC50 (MIHA; [1]) [µM]	IC50 (HeLa; [1]) [µM]	IC50 (CCD-19Lu) [µM]	incubation time for induction of apoptosis (HCT116 cells) [h]	IC50 (A2780adr; [2]) [µM]	IC50 (A2780adr; read-out: DOX at IC50, 72 h) [µM]	IC50 (MIHA; [2]) [µM]	IC50 (MIHA; read-out: DOX at IC50, 72 h) [µM]	IC50 (HeLa; [2]) [µM]	IC50 (HeLa; read-out: DOX at IC50, 72 h) [µM]
N.N.[Cl][Pt][Cl] [Cisplatin, cisplatin, reference compound]	15.7 ± 2.2	65.4 ± 5.06	2.59 ± 0.3	12.7 ± 1.83	5	12.3 ± 0.87	8.36 ± 0.05	3.23	13 ± 0.2	5.9 ± 0.02	17.6 ± 1.31	19.8 ± 1.42	49.1 ± 5.43							
COc1cccc2c1C(=O)c1c(O)c3c(c(O)c1C2=O)C[C@@](O)(C(=O)CO)C[C@@H]3O[C@H]1C[C@H](N)[C@H](O)[C@H](C)O1 [DOX, Doxorubicin, reference compound]	0.14 ± 0.02	0.04 ± 0.01	0.05 ± 0.01	0.68 ± 0.05	14.3		0.05 ± 0.01	1.20			0.1 ± 0.01	0.57 ± 0.06		30	0.68	0.68	0.1	0.1	0.57	0.57
